# Reference: patent publication US8338582B2, “Anti-HIV immunogens and methods for inducing an immune response” (Fundacao de Amparo a Pesquisa do Estado de Sao Paulo, priority 2005, dated 2012)
# Like-named read-outs stand apart in the source and are kept apart here.
# What was measured:
# [1] = test system: peripheral blood mononuclear cells from HIV-1 seronegative individuals; conditions: for IFN-γ spots/10^6 PBMC, Average (AV): average of 8 seronegative individuals; for IFN-γ spots/10^6 PBMC, Average (AV) / IFN-γ spots/10^6 PBMC: peptide 5 μM; for IFN-γ spots/10^6 PBMC, AV + 3SD: average plus 3 standard deviations, 8 seronegative individuals
# Procedure: (§1) Step d) is achieved by synthesizing the peptides representing the epitopes of the present invention, followed by ELISPOT assay to detect IFN-γ-producing cells. For the purposes of the present invention, the positivity cutoff value used is ≧30 SFC IFN-γ/10^6 PBMC, calculated based on the levels of responses of HIV-1 seronegative patients
# (§2) Synthetic peptide stocks were diluted to 25 mg/mL in dimethylsulphoxide, followed by ELISPOT assays for detection of IFN-γ-producing cells in response to the epitopes using peripheral blood mononuclear cells (PBMC) in 34 HIV-1+ patients of several clinical groups, long-term nonprogressors (LTNP), reconsituted, partial controllers, and progressors. Each epitope was tested in a concentration of 5 μM. The cryopreserved cells were maintained in culture for 16 hours, placed on plates in the presence of the epitopes, incubated for a further 18 hours, washed and ELISPOT plates were developed for the identification of spot-forming cells/Interferon-γ-producing cells (IFN-γ SFC), which were then counted in an automated counter (Zeiss KS ELISpot/Axioplan 2).
# [2] = test system: peripheral blood mononuclear cells (PBMC) in 34 HIV-1+ patients; conditions: 5 μM, positive ≧30 SFC IFN-γ/10^6 PBMC
# Procedure: as §1, §2
Sequence,"IFN-γ spots/10^6 PBMC, Average (AV) [1] [spots/10^6 PBMC]","IFN-γ spots/10^6 PBMC, AV + 3SD [1] [spots/10^6 PBMC]",IFN-γ spots/10^6 PBMC ([1]; seronegative individual C#01) [spots/10^6 PBMC],IFN-γ spots/10^6 PBMC ([1]; seronegative individual C#02) [spots/10^6 PBMC],IFN-γ spots/10^6 PBMC ([1]; seronegative individual C#03) [spots/10^6 PBMC],IFN-γ spots/10^6 PBMC ([1]; seronegative individual C#04) [spots/10^6 PBMC],IFN-γ spots/10^6 PBMC ([1]; seronegative individual C#05) [spots/10^6 PBMC],IFN-γ spots/10^6 PBMC ([1]; seronegative individual C#06) [spots/10^6 PBMC],IFN-γ spots/10^6 PBMC ([1]; seronegative individual C#07) [spots/10^6 PBMC],IFN-γ spots/10^6 PBMC ([1]; seronegative individual C#08) [spots/10^6 PBMC],percentage of HIV-1+ patients recognizing the individual peptide [2] [%]
QRPLVTIKIGGQLKE [pol 1],5.1,26.9,0,0,20,12,3,0,1,5,44
SPEVIPMFSALSE [gag 2],0.9,6.3,0,2,0,0,0,0,0,5,–
TMLLGMLMICSAA [env 2],3.4,19.7,0,7,5,0,0,0,0,15,–
VLAIVALVVATIIAI [vpu 1],3.7,16.2,0,0,7,7,0,0,6,10,–
VLEWRFDSRLAFHHV [nef 1],4.4,17.7,0,3,7,12,8,0,0,5,–
